Measured values from patent US20230015691A1, “PROPHYLACTIC OR THERAPEUTIC AGENT FOR NON-ALCOHOLIC STEATOHEPATITIS IN HUMANS” (MITSUBISHI TANABE PHARMA CORPORATION, priority 2019, published 2023).

Assays:
[1] = system: serum hyaluronic acid (HA); test: Change in serum hyaluronic acid level (Chemilumi Hyaluronic Acid); format: in vivo, human; conditions: for Change from baseline/Hyaluronic Acid, LS Mean: serum, NASH patients, 10 mg once daily
Description: (§1) [Test Protocol] • Number of cases to be analyzed: 47 cases (placebo administration group: 23 cases; MT-3995 administration group: 24 cases) • The subjects were selected according to the following criteria.
(§2) • Pre-observation period (number of weeks): 10 weeks • Administration period (number of weeks): 72 weeks • Post-observation period (number of weeks): 8 weeks • Dosage and administration: MT-3995 administration group=once daily, 10 mg; placebo group=once-daily administration
Table 3 and FIG. 2 show the average amount of change in the serum hyaluronic acid level after the assignment. For measurement of the serum hyaluronic acid level, serum was prepared from blood collected from each patient on the day of the visit, according to a conventional method. The prepared serum was subjected to a test. For the measurement, Chemilumi Hyaluronic Acid (Siemens Healthcare Diagnostics K. K.) was used.

[2] = system: serum procollagen III N-Terminal Propeptide (PIIINP); test: Change in serum PIIINP level (Chemilumi PIIIP); format: in vivo, human; conditions: for Change from baseline/PIIINP, Mean / Change from baseline/PIIINP, LS Mean (95% CI): serum; for Change from baseline/PIIINP, LS Mean (95% CI): all NASH patients
Description: as §1, §2
Table 4-1 and FIG. 3-1 show the average amount of change in the serum procollagen III N-Terminal Propeptide (PIIINP) level after the assignment. For measurement of the serum PIIINP level, serum was prepared from blood collected from each patient, according to a conventional method. The prepared serum was subjected to a test. For the measurement, Chemilumi PIIIP (Siemens Healthcare Diagnostics K. K.) was used.
(§3) A stratified analysis was carried out for the subjects based on the presence or absence of complication with diabetes. DM represents the “group of patients complicated with diabetes”. A higher effect was found in the group of patients complicated with diabetes.
(§4) Further, a stratified analysis was carried out for the subjects based on the presence or absence of complication with hypertension. HP represents the “group of patients complicated with hypertension”. A higher effect was found in the group of patients complicated with hypertension.
Further, an analysis was carried out after dividing the subjects into patients with a BMI of not less than 30 and patients with a BMI of less than 30. In the figure, “<30” represents the group of patients with a BMI of less than 30, and “≥30” represents the group of patients with a BMI of not less than 30. A higher effect was found in the group of patients with a BMI of not less than 30.

[3] = system: plasma-soluble Vascular Cell Adhesion Molecule-1 (sVCAM); test: Change in plasma sVCAM-1 level (Human sVCAM-1/CD106 Quantikine ELISA Kit); format: in vivo; conditions: for Change from baseline/sVCAM-1, Mean: plasma, 10 mg once daily
Description: as §1, §2
Table 6-1 and FIG. 5-1 show the average amount of change in the plasma-soluble Vascular Cell Adhesion Molecule-1 (sVCAM) after the assignment. For measurement of the plasma sVCAM level, plasma was prepared from blood collected from each patient, according to a conventional method. The prepared plasma was subjected to a test. For the measurement, a Human sVCAM-1/CD106 Quantikine ELISA Kit (R&D Systems, Inc.) was used.
as §3, §4

liver stiffness = test: Change in liver stiffness (Fibro scan); format: in vivo, human; conditions: for Change from baseline/Liver stiffness (Fibro scan), Mean: NASH patients, 10 mg once daily
Description: as §1, §2
The liver stiffness after the assignment was measured using Shear Wave Elastography or Fibro scan. Table 7 and FIG. 6 show the average amount of change in the liver stiffness according to Shear Wave Elastography. Table 8 and FIG. 7 show the average amount of change in the liver stiffness according to Fibro scan.

[4] = system: non-alcoholic steatohepatitis (NASH) model rats; conditions: Patent Document 1; cited from earlier work
[5] = throughout the treatment period

## CC1(C)Oc2cc(NS(C)(=O)=O)ccc2N(c2ccc(F)cc2)C1=O [MT-3995]
[1]; Weeks 24, 48, and 72 after the beginning of the administration
  Serum hyaluronic acid level versus placebo group: significantly lower than the level in the placebo group
[1]; Week 12
  Change from baseline/Hyaluronic Acid, LS Mean: -31.87 ng/mL
[1]; Week 24
  Change from baseline/Hyaluronic Acid, LS Mean: -39.02 ng/mL
[1]; Week 48
  Change from baseline/Hyaluronic Acid, LS Mean: -47.23 ng/mL
[1]; Week 72
  Change from baseline/Hyaluronic Acid, LS Mean: -32.02 ng/mL
[1]; [5]
  Serum hyaluronic acid level versus beginning of the administration: lower than the level observed at the beginning of the administration
[2]; Weeks 12, 24, and 48 after the beginning of the administration
  Serum PIIINP level versus placebo group: significantly lower than the level in the placebo group
[2]; DM (patients complicated with diabetes), 10 mg once daily, Week 12
  Change from baseline/PIIINP, Mean: -2.45 ng/mL
[2]; DM (patients complicated with diabetes), 10 mg once daily, Week 24
  Change from baseline/PIIINP, Mean: -2.47 ng/mL
[2]; DM (patients complicated with diabetes), 10 mg once daily, Week 48
  Change from baseline/PIIINP, Mean: -4.92 ng/mL
[2]; DM (patients complicated with diabetes), 10 mg once daily, Week 72
  Change from baseline/PIIINP, Mean: -5.00 ng/mL
[2]; HP (patients complicated with hypertension), 10 mg once daily, Week 12
  Change from baseline/PIIINP, Mean: -2.75 ng/mL
[2]; HP (patients complicated with hypertension), 10 mg once daily, Week 24
  Change from baseline/PIIINP, Mean: -3.64 ng/mL
[2]; HP (patients complicated with hypertension), 10 mg once daily, Week 48
  Change from baseline/PIIINP, Mean: -5.26 ng/mL
[2]; HP (patients complicated with hypertension), 10 mg once daily, Week 72
  Change from baseline/PIIINP, Mean: -4.98 ng/mL
[2]; 10 mg once daily, Week 12
  Change from baseline/PIIINP, LS Mean (95% CI): −2.192 (−3.874, −0.510) ng/mL
[2]; 10 mg once daily, Week 24
  Change from baseline/PIIINP, LS Mean (95% CI): −3.124 (−5.605, −0.643) ng/mL
[2]; 10 mg once daily, Week 48
  Change from baseline/PIIINP, LS Mean (95% CI): −3.987 (−5.756, −2.218) ng/mL
[2]; 10 mg once daily, Week 72
  Change from baseline/PIIINP, LS Mean (95% CI): −3.930 (−5.714, −2.146) ng/mL
[2]; non-DM patients, 10 mg once daily, Week 12
  Change from baseline/PIIINP, Mean: -2.34 ng/mL
[2]; non-DM patients, 10 mg once daily, Week 24
  Change from baseline/PIIINP, Mean: -4.19 ng/mL
[2]; non-DM patients, 10 mg once daily, Week 48
  Change from baseline/PIIINP, Mean: -3.14 ng/mL
[2]; non-DM patients, 10 mg once daily, Week 72
  Change from baseline/PIIINP, Mean: -2.89 ng/mL
[2]; non-HP patients, 10 mg once daily, Week 12
  Change from baseline/PIIINP, Mean: -1.69 ng/mL
[2]; non-HP patients, 10 mg once daily, Week 24
  Change from baseline/PIIINP, Mean: -2.71 ng/mL
[2]; non-HP patients, 10 mg once daily, Week 48
  Change from baseline/PIIINP, Mean: -1.89 ng/mL
[2]; non-HP patients, 10 mg once daily, Week 72
  Change from baseline/PIIINP, Mean: -2.13 ng/mL
[2]; patients with BMI < 30, 10 mg once daily, Week 12
  Change from baseline/PIIINP, Mean: -2.33 ng/mL
[2]; patients with BMI < 30, 10 mg once daily, Week 24
  Change from baseline/PIIINP, Mean: -3.86 ng/mL
[2]; patients with BMI < 30, 10 mg once daily, Week 48
  Change from baseline/PIIINP, Mean: -2.58 ng/mL
[2]; patients with BMI < 30, 10 mg once daily, Week 72
  Change from baseline/PIIINP, Mean: -2.40 ng/mL
[2]; patients with BMI ≥ 30, 10 mg once daily, Week 12
  Change from baseline/PIIINP, Mean: -2.46 ng/mL
[2]; patients with BMI ≥ 30, 10 mg once daily, Week 24
  Change from baseline/PIIINP, Mean: -2.79 ng/mL
[2]; patients with BMI ≥ 30, 10 mg once daily, Week 48
  Change from baseline/PIIINP, Mean: -5.24 ng/mL
[2]; patients with BMI ≥ 30, 10 mg once daily, Week 72
  Change from baseline/PIIINP, Mean: -5.24 ng/mL
[2]; [5]
  Serum PIIINP value versus beginning of the administration: lower than the value observed at the beginning of the administration
[3]; Week 24, Week 48, and Week 72
  Plasma sVCAM value versus placebo group: lower than the value in the placebo group
[3]; from Week 24 after the beginning of the administration
  Plasma sVCAM values versus beginning of the administration: lower plasma sVCAM values
[3]; DM (patients complicated with diabetes), Week 12
  Change from baseline/sVCAM-1, Mean: -6.58 ng/mL
[3]; DM (patients complicated with diabetes), Week 24
  Change from baseline/sVCAM-1, Mean: -47.08 ng/mL
[3]; DM (patients complicated with diabetes), Week 48
  Change from baseline/sVCAM-1, Mean: -62.73 ng/mL
[3]; DM (patients complicated with diabetes), Week 72
  Change from baseline/sVCAM-1, Mean: -112.27 ng/mL
[3]; HP (patients complicated with hypertension), Week 12
  Change from baseline/sVCAM-1, Mean: 5.69 ng/mL
[3]; HP (patients complicated with hypertension), Week 24
  Change from baseline/sVCAM-1, Mean: -44.06 ng/mL
[3]; HP (patients complicated with hypertension), Week 48
  Change from baseline/sVCAM-1, Mean: -70.29 ng/mL
[3]; HP (patients complicated with hypertension), Week 72
  Change from baseline/sVCAM-1, Mean: -89.57 ng/mL
[3]; all NASH patients, Week 12
  Change from baseline/sVCAM-1, Mean: 13.8 ng/mL
[3]; all NASH patients, Week 24
  Change from baseline/sVCAM-1, Mean: -43.8 ng/mL
[3]; all NASH patients, Week 48
  Change from baseline/sVCAM-1, Mean: -44.7 ng/mL
[3]; all NASH patients, Week 72
  Change from baseline/sVCAM-1, Mean: -74.7 ng/mL
[3]; non-DM patients, Week 12
  Change from baseline/sVCAM-1, Mean: 34.25 ng/mL
[3]; non-DM patients, Week 24
  Change from baseline/sVCAM-1, Mean: -40.58 ng/mL
[3]; non-DM patients, Week 48
  Change from baseline/sVCAM-1, Mean: -26.64 ng/mL
[3]; non-DM patients, Week 72
  Change from baseline/sVCAM-1, Mean: -37.18 ng/mL
[3]; non-HP patients, Week 12
  Change from baseline/sVCAM-1, Mean: 30.13 ng/mL
[3]; non-HP patients, Week 24
  Change from baseline/sVCAM-1, Mean: -43.38 ng/mL
[3]; non-HP patients, Week 48
  Change from baseline/sVCAM-1, Mean: 0.13 ng/mL
[3]; non-HP patients, Week 72
  Change from baseline/sVCAM-1, Mean: -48.75 ng/mL
Liver stiffness; Fibro scan, throughout the treatment period
  Liver stiffness versus beginning of the administration: lower than the value observed at the beginning of the administration
Liver stiffness; Week 12
  Change from baseline/Liver stiffness (Fibro scan), Mean: −0.49 kPa
Liver stiffness; Week 24
  Change from baseline/Liver stiffness (Fibro scan), Mean: 0.30 kPa
Liver stiffness; Week 48
  Change from baseline/Liver stiffness (Fibro scan), Mean: −1.05 kPa
Liver stiffness; Week 72
  Change from baseline/Liver stiffness (Fibro scan), Mean: −1.41 kPa
[4]
  Effectiveness based on Sirius Red-positive area and fibrosis score: effectiveness
